# Laboratory results: patent US10144713B1, “Bis-cyclic guanidines as antibacterial agents” (UNIVERSITY OF SOUTH FLORIDA, priority 2017, dated 2018)
# Legend:
# Format in all cases: cell-based
# E. coli = test: Time-kill study; conditions: 12.5 μg/mL
# Experimental: The killing activity was monitored for the first 2 h. The concentrations for compound 11 were 2×MIC, 4×MIC, and 8×MIC, respectively.
# Time-kill studies were conducted to investigate the bacterial killing kinetics of compounds 11 and 12 by using E. Coli. Briefly, the bacteria […] grew to mid-logarithmic phase in TSB medium, from which the suspension (10^6 CFU/ml) was made. The suspension was incubated with different concentrations of 11 or 12 for 10 min, 30 min, 1 h and 2 h respectively. The mixtures were diluted by 10^2 to 10^4 fold and spread on TSB agar plates. After incubation at 37° C. overnight, the colonies on the plates were counted and plotted against the incubation time. […] Cell colonies were counted in agar plates at 12.5, 25, and 50 μg/mL. Compound 11 at the concentration of 12.5 or 25 μg/mL completely removed all bacteria in 2 hours, and at 50 μg/mL it completely removed bacteria in 0.5 hour. Compound 12 killed E. Coli completely in 0.5 hour at the concentration of 12.5 μg/mL.
# [1] = system: P. aeruginosa (ATCC27853); test: MIC against P. aeruginosa; conditions: Pseudomonas aeruginosa, ATCC27853; Gram −; 16 h, 37° C.
# Experimental: (§1) Minimum Inhibitory Concentrations (MICs) Against Bacteria.
# (§2) The antimicrobial activity of the compounds was tested on the following six bacteria strains: K. pneumoniae (ATCC 13383), P. aeruginosa (ATCC27853), E. coli (ATCC 25922), vancomycin-resistant Enterococcus faecalis(ATCC 700802), Methicillin-resistant S. aureus (MRSA, ATCC 33591), Methicillin-resistant S. epidermidis (MRSE, RP62A). The procedures were followed as reported previously (Hancock et al., Immunobiology 2006, 211, 315-322). Briefly, a single colony of each bacterium was inoculated in 3 mL TSB medium and incubated overnight at 37° C. Then the bacteria culture was diluted at 1:100 and the bacteria were allowed to grow to mid-logarithmic phase. Next, 50 μL of 2-fold serial dilutions of compounds (0.1-25 μg/mL) were added the 96-well plate containing aliquots of 50 μL of bacteria suspension (1×10^6 CFU/mL) in each well. The mixture was incubated at 37° C. for 16 h, and their absorption at 600 nm wavelength was read on a Biotek Synergy HT microtiter plate reader. […] The experiments were repeated at least three times with duplicates each time. HC50 means the concentration causing 50% hemolysis.
# [2] = system: human red blood cells (hRBCs); test: Hemolytic assay
# Experimental: The freshly drawn, K2EDTA treated human red blood cells (hRBCs) were washed with 1×PBS buffer, and centrifuged at 3500 rpm for 10 min. The step was repeated until the supernatant became clear. The supernatant was removed, and the RBCs were diluted into 5% v/v suspension. 50 μL of the suspension was incubated with 50 μL of compounds of different concentrations at 37° C. for 1 h. The mixture was centrifuged at 3500 rpm for 10 min. Subsequently, to 30 μL of the supernatant 100 μL PBS was added, and the absorbance of the mixture at 540 nm was read on a Biotek Synergy HT plate reader. The positive control was 2% Triton X-100, and the negative control was 1×PBS alone. The hemolysis activity was calculated by the formula % hemolysis=(Abssample−AbsPBS)/(AbsTriton−AbsPBS)×100%. The experiment was repeated at least three times with duplicates each time.
# [3] = system: Methicillin-resistant S. aureus (MRSA, ATCC 33591); test: MIC against MRSA; conditions: Staphylococcus aureus; Gram +; 16 h, 37° C.
# Experimental: as §1, §2
# [4] = system: K. pneumoniae (ATCC 13383); test: MIC against K. pneumoniae; conditions: Klebsiella pneumoniae, ATCC13383; Gram −; 16 h, 37° C.
# Experimental: as §1, §2
structure (smiles),measurement,setting,value
CCCCCCN1C(=N)N(CC(=O)Nc2cccc(NC(=O)CN3C[C@H](Cc4ccccc4)N(CCCCCC)C3=N)c2)C[C@@H]1Cc1ccccc1 [Compound 12],time to completely remove all bacteria,E. coli,0.5 h
same,MIC,[1],4 µg/mL
same,"selectivity, hemolytic activity against MIC values of MRSA",[2],1534 folds
same,MIC,[3],0.16 µg/mL
same,MIC,[4],0.75 µg/mL
